This note sets out measurements from ChEMBL document CHEMBL1144555, “Chemoenzymatic synthesis and antimicrobial activity evaluation of monoglucosyl diglycerides” (2007).

Broadly, the MIC is the lowest concentration that inhibits growth of the organism. Read a high MIC as a less susceptible organism.

What all share (assay type): functional
Experiment [1] relates to Staphylococcus aureus. The experiment can be described thus: Antimicrobial activity against Staphylococcus aureus ATCC 25923.
The subject of experiment [2] is Staphylococcus aureus. As to the kind of experiment: Antimicrobial activity against Staphylococcus aureus ATCC 105487.
Another experiment deals with Enterococcus faecalis. As to the kind of experiment: Antimicrobial activity against Enterococcus faecalis ATCC 29212.
The subject of a further experiment is Bacillus subtilis. The experiment can be described thus: Antimicrobial activity against Bacillus subtilis ATCC 6633.
In a further experiment the test system is Escherichia coli. As to the kind of experiment: Antimicrobial activity against Escherichia coli ATCC 25922.
For another experiment, the system named is Pseudomonas aeruginosa. The experiment can be described thus: Antimicrobial activity against Pseudomonas aeruginosa ATCC 27753.
In experiment [3] the test system is Staphylococcus aureus. As to the kind of experiment: Antimicrobial activity against Staphylococcus aureus 52.
In experiment [4] the test system is Staphylococcus aureus. As to the kind of experiment: Antimicrobial activity against Staphylococcus aureus 85.
The test system of experiment [5] is Staphylococcus aureus. As to the kind of experiment: Antimicrobial activity against Staphylococcus aureus 87.
Experiment [6] deals with Mycobacterium tuberculosis. As to the kind of experiment: Antimicrobial activity against Mycobacterium tuberculosis H37Rv.
Experiment [7] has as its system Mycobacterium tuberculosis. The experiment can be described thus: Antimicrobial activity against Mycobacterium tuberculosis H160.
Experiment [8] has as its system Mycobacterium tuberculosis. The experiment can be described thus: Antimicrobial activity against Mycobacterium tuberculosis H190.
Another experiment relates to Candida albicans. As to the kind of experiment: Antimicrobial activity against Candida albicans.
The test system of a further experiment is Kluyveromyces marxianus. The experiment can be described thus: Antimicrobial activity against Candida pseudotropicalis.

For the compound `CCCCCCCC(=O)OCC(CO[C@@H]1O[C@H](CO)[C@@H](O)[C@H](O)[C@H]1O)OC(=O)CCCCCCC` (mixture of isomers), the MIC is 16 µg/mL in the experiment with Staphylococcus aureus [1]; 32 µg/mL in the experiment with Staphylococcus aureus [2]; 32 µg/mL in the experiment with Enterococcus faecalis; 16 µg/mL with Bacillus subtilis; over 128 µg/mL against Escherichia coli; over 128 µg/mL against Pseudomonas aeruginosa. Besides, the MIC against Staphylococcus aureus [3] was over 128 µg/mL; against Staphylococcus aureus [4], 16 µg/mL; in the experiment with Staphylococcus aureus [5] it was 16 µg/mL; in experiment [6], 64 µg/mL; in experiment [7], 64 µg/mL; in [8], 64 µg/mL. Besides, the MIC against Candida albicans and in the experiment with Kluyveromyces marxianus was over 128 µg/mL in each case.
